One compound from paper PMC11056994, “Potentiating Activity of GmhA Inhibitors on Gram-Negative Bacteria” (Journal of Medicinal Chemistry, 2024) can be followed below.

Where two headings read alike, the source gives them in different places.

Common to all, as to assay type: cell-based
For data set [1], the system named is K. pneumoniae S3 LPS heptosylation. As to the kind of experiment: LPS heptosylation inhibition in clinical isolate K. pneumoniae S3. Particulars: Klebsiella pneumoniae, read-out: EC50 of LPS heptosylation. As to the method:
(§1) Compound 17 was also tested against clinical isolates of E. coli,[…], and K. pneumoniae for its ability to block LPS heptosylation (EC50). As detailed in Table 3, 17 in the presence of the UhpT inducer glucose-6-phosphate (100 μM) is a specific inhibitor of LPS heptosylation against various strains, including multiresistant clinical isolates expressing ESBL, AmpC, or NDM-1.
(§2) The compounds to be tested were prepared in deionized water/DMSO (50/50) solutions and added (25 μL) in sterile culture microtubes. The test bacterial isolate was isolated on tryptic soy agar (TSA) overnight. Isolated colonies were cultured in 10 mL of LB medium at 37 °C up to an OD of typically 0.15. These exponentially growing bacteria were finally diluted to 5 × 10^5 cfu/mL and added in each well (225 μL) for incubation with the compounds at 37 °C for approximately 5 h, up to an OD of ≈0.2–0.4. Some test compounds, e.g., phospho-sugars are actively transported into the bacterial cytosol via the phospho-sugar transporter UhpT (Figure S3). […] The resulting supernatant, containing LPS, was finally analyzed by SDS-PAGE electrophoresis. […] Gels were finally washed in deionized water, numerized with a Samsung PL51 camera, and analyzed by ImageJ software. […]

A short description of data set [2]: HepG2 cytotoxicity. Conditions: human, HepG2 cells; n = 2. The procedure:
HepG2 cells (LGC Promochem, ref HB-8065) in EMEM medium supplemented with fetal bovine serum (10%), Ampicillin (100 mg/L), and Streptomycin (100 mg/L) were plated on cell culture plates (Costar 3596, 2 × 10^4 cells/well) and incubated overnight at 37 °C in 5% CO2. The culture medium was then aspirated and replaced by supplemented EMEM (210 μL including 2% DMSO) containing dilutions of compounds. Plates were incubated overnight at 37 °C in 5% CO2. Cell viability was determined by the Celltiter Aqueous One Cell Proliferation Assay (G3581–80, Promega) according to the manufacturer’s recommendations, using a Multiskan absorption reader (490 nm).

The test system of data set [3] is E. cloacae S2 LPS heptosylation. Kind of data set: LPS heptosylation inhibition in clinical isolate E. cloacae S2. Conditions: Enterobacter cloacae; E. cloacae S2, AmpC; 100 μM glucose-6-phosphate; n = 1. The procedure: as §1, §2
Data set [4] has as its system E. coli C7 (O18:K1:H7). As to the kind of experiment: MIC determination of antibiotics combined with a GmhA inhibitor. Particulars: 17 at 27 mg/L (100 μM), glucose-6-phosphate 100 μM, E. coli C7. As to the method:
(§3) The compound to be tested was diluted in 50 mM HEPES buffer (pH 7.4) from 10 mM stock solution in DMSO. Five microliters of compound dilution or buffer were distributed in a sterile clear round-bottom 96-well polystyrene microplate (Corning). Five microliters of serial 2-fold dilutions of reference antibiotics [Erythromycin (Fluka), Rifampicin (Fluka)] in DMSO were added. An exponentially growing preculture of E. coli C7 (O18:K1:H7) in LB was diluted to 10^4 cfu/mL and supplemented with 100 μM G6P, and 90 μL of this suspension were added to the microplates. After overnight incubation at 37 °C, the MIC of the antibiotics were determined for each test compound concentration as the lowest antibiotic concentration for which no bacterial pellet is visible without magnification.

For data set [5], the system named is E. coli C7 (018:K1:H7) LPS biosynthesis. As to the kind of experiment: Inhibition of bacterial LPS biosynthesis (silver-stained LPS SDS-PAGE). Particulars: Escherichia coli; E. coli C7 LPS biosynthesis by SDS-PAGE; mean ± SD of 3 experiments for 17 and 24, n = 1 for others; read-out: EC50. The procedure:
The compounds to be tested were prepared in deionized water/DMSO (50/50) solutions and added (25 μL) in sterile culture microtubes. The test bacterial isolate was isolated on tryptic soy agar (TSA) overnight. Isolated colonies were cultured in 10 mL of LB medium at 37 °C up to an OD of typically 0.15. These exponentially growing bacteria were finally diluted to 5 × 10^5 cfu/mL and added in each well (225 μL) for incubation with the compounds at 37 °C for approximately 5 h, up to an OD of ≈0.2–0.4. Some test compounds, e.g., phospho-sugars are actively transported into the bacterial cytosol via the phospho-sugar transporter UhpT (Figure S3). 2.5 μL portion of a 10 mM water solution of glucose-6-phosphate (G6P, 100 μM final concentration, from Sigma) was added in the culture tube in order to induce UhpT expression. LPS extraction: Bacterial cultures were normalized via OD determination, pelleted, and washed with 1 mL of phosphate-buffered-saline (PBS). The pellets were then denatured for 10 min at 95–100 °C in 50 μL of 0.2% sodium dodecyl sulfate (SDS), β-mercaptoethanol 1%, glycerol 36%, Tris 30 mM, pH 7.4, and bromophenol blue 0.001%. Samples were cooled down to room temperature, supplemented with 1.5 μL of proteinase K at 20 mg/mL, incubated for 1 h at 55 °C, and centrifuged for 30 min at 13,000 rpm at 25 °C. The resulting supernatant, containing LPS, was finally analyzed by SDS-PAGE electrophoresis. LPS SDS-PAGE electrophoresis: Polyacrylamide gels (16%/4% acrylamide for separation and concentration, respectively) were prepared, loaded with 8 μL of LPS extracts, and migrated. Silver staining: Gels were incubated overnight in 5% acetic acid/40% ethanol/deionized water, treated by 1% periodic acid/5% acetic acid for 15 min, washed 4 times for 10 min in deionized water, and finally incubated for 18 min in the dark in a silver nitrate solution composed of 56 mL of 0.1 M NaOH (56 mL), 33% aq ammonia (4 mL), 5% AgNO3 (45 mL), and deionized water (195 mL). Gels were then washed extensively in deionized water for 30 min and incubated for 10–15 min (up to LPS band appearance) in the revelation mix composed of 300 mL of deionized water (300 mL), 36.5% formaldehyde (0.3 mL, Fluka), and 2.3 M citric acid (0.1 mL). The revelation was stopped by incubating the gels in 10% acetic acid for 5 min. Gels were finally washed in deionized water, numerized with a Samsung PL51 camera, and analyzed by ImageJ software. The percentage of inhibition of LPS heptosylation was defined as the relative area of the Re-LPS band compared to the cumulated areas of Re-LPS and Core-LPS bands.

Data set [6] deals with E. coli C7 (O18:K1:H7). As to the kind of experiment: Time-kill kinetics of rifampicin in combination with compound 17. The procedure:
Rifampicin (Fluka) was diluted in DMSO, and the compound to be tested was diluted in water from 50 mM stock solution in 50 mM HEPES buffer, pH 7.4. Ten microliter of DMSO was distributed in sterile 1.5 mL polypropylene microtubes (Eppendorf). 2.5 μL of compound dilution or water, 2.5 μL of Rifampicin or DMSO, 2.5 μL of 10 mM G6P in water (100 μM final concentration), and 230 μL of LB were added to the microtubes. E. coli C7 (O18:K1:H7) was grown in 5 mL of LB broth at 37 °C until mid-log phase. The suspension was then diluted in LB to obtain a 100× inoculum of 5 × 10^7 cfu/mL, 2.5 μL of which were added to each microtube (5 × 10^5 cfu/mL final inoculum). The microtubes were incubated at 37 °C, and aliquots of 10 μL were sampled at 0, 2, 4, 6, 8, and 24 h for bacterial enumeration in duplicate.

Data set [7] relates to E. coli C7. As to the kind of experiment: MIC of the compounds alone on E. coli C7. Conditions: compound alone, n = 2, read-out: MIC E. coli C7. The procedure:
Then, we investigated the cytotoxicity and the ability of such inhibitors to potentiate the antimicrobial activity of macrolide and rifamycin antibiotics.
as §3

Data set [8] deals with E. coli S1 LPS heptosylation. As to the kind of experiment: LPS heptosylation inhibition in clinical isolate E. coli S1. Conditions: Escherichia coli; E. coli S1, ESBL; 100 μM glucose-6-phosphate; n = 1. As to the method: as §1, §2

On to `O=CN(O)C[C@H](O)[C@H](O)[C@H](O)COP(=O)(O)O` [Compound 17], for which the EC50 came out at 21 µM in data set [1], 18 µM in data set [3], 20 ± 3 µM in data set [5] and 21 µM in data set [8]. For the same compound, in data set [2], the CC50 was above 1000 µM. Also, the potentiation of erythromycin in data set [4] is 32 fold. Besides, the potentiation of rifampicin in data set [4] turned out to be 16 fold. Moreover, in data set [6] (17 300 μM alone or rifampicin 1 mg/L alone), the “effect on bacterial growth, compound alone” value is “did not alter at all the bacterial growth”. Besides, in data set [6] (17 (300 μM) combined with rifampicin (1 mg/L), 24 h), the “bacterial counts at 24 h” value is “no detectable counts”. The “reduction of the bacterial inoculum” value in data set [6] (17 (300 μM) combined with rifampicin (1 mg/L), in less than 6 h) was “more than 3 log”. Also, the MIC in data set [7] (Escherichia coli, C7) is above 1000 µM; in data set [7], above 1000 µM.
